Measurements as given in PubChem BioAssay (NCI).
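Protocol summary: plate cells (96-well), add compound at 5 concentrations, incubate 48 h, interpolate endpoints linearly. The concentration for full growth arrest is given as TGI.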

How the values were obtained:
Experiment in all cases: inhibition of tumour cell growth, NCI panel, 48 h
786-0 renal = system: 786-0 renal
A498 renal = system: A498 renal
A549 NSCLC = system: A549 NSCLC
ACHN renal = system: ACHN renal
BT-549 breast = system: BT-549 breast
CAKI-1 renal = system: CAKI-1 renal
CCRF-CEM leukemia = system: CCRF-CEM leukemia
COLO 205 colon = system: COLO 205 colon
DU-145 prostate = system: DU-145 prostate
EKVX NSCLC = system: EKVX NSCLC
HCC-2998 colon = system: HCC-2998 colon
HCT-116 colon = system: HCT-116 colon
HCT-15 colon = system: HCT-15 colon
HL-60(TB) leukemia = system: HL-60(TB) leukemia
HOP-62 NSCLC = system: HOP-62 NSCLC
HOP-92 NSCLC = system: HOP-92 NSCLC
HS 578T breast = system: HS 578T breast
HT29 colon = system: HT29 colon
IGROV1 ovarian = system: IGROV1 ovarian
K-562 leukemia = system: K-562 leukemia
KM12 colon = system: KM12 colon
LOX IMVI melanoma = system: LOX IMVI melanoma
MALME-3M melanoma = system: MALME-3M melanoma
MCF7 breast = system: MCF7 breast
MDA-MB-231 breast = system: MDA-MB-231 breast
MDA-MB-435 = system: MDA-MB-435
MDA-N = system: MDA-N
MOLT-4 leukemia = system: MOLT-4 leukemia
NCI-H226 lung = system: NCI-H226 lung
NCI-H23 lung = system: NCI-H23 lung
NCI-H460 lung = system: NCI-H460 lung
NCI-H522 lung = system: NCI-H522 lung
NCI/ADR-RES ovarian = system: NCI/ADR-RES ovarian
OVCAR-3 ovarian = system: OVCAR-3 ovarian
OVCAR-4 ovarian = system: OVCAR-4 ovarian
OVCAR-5 ovarian = system: OVCAR-5 ovarian
OVCAR-8 ovarian = system: OVCAR-8 ovarian
PC-3 prostate = system: PC-3 prostate
RPMI-8226 leukemia = system: RPMI-8226 leukemia
RXF 393 renal = system: RXF 393 renal
SF-268 CNS = system: SF-268 CNS
SF-295 CNS = system: SF-295 CNS
SF-539 CNS = system: SF-539 CNS
SK-MEL-28 melanoma = system: SK-MEL-28 melanoma
SK-MEL-5 melanoma = system: SK-MEL-5 melanoma
SN12C renal = system: SN12C renal
SNB-19 CNS = system: SNB-19 CNS
SNB-75 CNS = system: SNB-75 CNS
SR leukemia = system: SR leukemia
SW-620 colon = system: SW-620 colon
TK-10 renal = system: TK-10 renal
U251 CNS = system: U251 CNS
UACC-257 melanoma = system: UACC-257 melanoma
UO-31 renal = system: UO-31 renal
M14 melanoma = system: M14 melanoma
SK-MEL-2 melanoma = system: SK-MEL-2 melanoma
SK-OV-3 ovarian = system: SK-OV-3 ovarian
UACC-62 melanoma = system: UACC-62 melanoma

O=C(NCCc1ccccc1)c1c(O)c2ccccc2[nH]c1=O
TGI (786-0 renal): > 100 µM | TGI (A498 renal): > 100 µM | TGI (A549 NSCLC): > 100 µM | TGI (ACHN renal): > 100 µM | TGI (BT-549 breast): > 100 µM | TGI (CAKI-1 renal): > 100 µM | TGI (CCRF-CEM leukemia): > 100 µM | TGI (COLO 205 colon): > 100 µM | TGI (DU-145 prostate): > 100 µM | TGI (EKVX NSCLC): > 100 µM | TGI (HCC-2998 colon): > 100 µM | TGI (HCT-116 colon): > 100 µM | TGI (HCT-15 colon): > 100 µM | TGI (HL-60(TB) leukemia): > 100 µM | TGI (HOP-62 NSCLC): > 100 µM | TGI (HOP-92 NSCLC): > 100 µM | TGI (HS 578T breast): > 100 µM | TGI (HT29 colon): > 100 µM | TGI (IGROV1 ovarian): > 100 µM | TGI (K-562 leukemia): > 100 µM | TGI (KM12 colon): > 100 µM | TGI (LOX IMVI melanoma): > 100 µM | TGI (MALME-3M melanoma): > 100 µM | TGI (MCF7 breast): > 100 µM | TGI (MDA-MB-231 breast): > 100 µM | TGI (MDA-MB-435): > 100 µM | TGI (MDA-N): > 100 µM | TGI (MOLT-4 leukemia): > 100 µM | TGI (NCI-H226 lung): > 100 µM | TGI (NCI-H23 lung): > 100 µM | TGI (NCI-H460 lung): > 100 µM | TGI (NCI-H522 lung): > 100 µM | TGI (NCI/ADR-RES ovarian): > 100 µM | TGI (OVCAR-3 ovarian): > 100 µM | TGI (OVCAR-4 ovarian): > 100 µM | TGI (OVCAR-5 ovarian): > 100 µM | TGI (OVCAR-8 ovarian): > 100 µM | TGI (PC-3 prostate): > 100 µM | TGI (RPMI-8226 leukemia): > 100 µM | TGI (RXF 393 renal): > 100 µM | TGI (SF-268 CNS): > 100 µM | TGI (SF-295 CNS): > 100 µM | TGI (SF-539 CNS): > 100 µM | TGI (SK-MEL-28 melanoma): > 100 µM | TGI (SK-MEL-5 melanoma): > 100 µM | TGI (SN12C renal): > 100 µM | TGI (SNB-19 CNS): > 100 µM | TGI (SNB-75 CNS): > 100 µM | TGI (SR leukemia): > 100 µM | TGI (SW-620 colon): > 100 µM | TGI (TK-10 renal): > 100 µM | TGI (U251 CNS): > 100 µM | TGI (UACC-257 melanoma): > 100 µM | TGI (UO-31 renal): > 100 µM

O=c1cc(N=Nc2ccc(O)cc2)[nH]c(=O)[nH]1
TGI (786-0 renal): > 100 µM | TGI (A498 renal): > 100 µM | TGI (A549 NSCLC): > 100 µM | TGI (ACHN renal): > 100 µM | TGI (BT-549 breast): > 100 µM | TGI (CAKI-1 renal): > 100 µM | TGI (COLO 205 colon): > 100 µM | TGI (DU-145 prostate): > 100 µM | TGI (EKVX NSCLC): > 100 µM | TGI (HCC-2998 colon): > 100 µM | TGI (HCT-116 colon): > 100 µM | TGI (HCT-15 colon): > 100 µM | TGI (HL-60(TB) leukemia): > 100 µM | TGI (HOP-62 NSCLC): > 100 µM | TGI (HOP-92 NSCLC): > 100 µM | TGI (HT29 colon): > 100 µM | TGI (IGROV1 ovarian): > 100 µM | TGI (K-562 leukemia): > 100 µM | TGI (KM12 colon): > 100 µM | TGI (LOX IMVI melanoma): > 100 µM | TGI (M14 melanoma): > 100 µM | TGI (MALME-3M melanoma): 89.2 µM | TGI (MCF7 breast): > 100 µM | TGI (MDA-MB-231 breast): > 100 µM | TGI (MDA-MB-435): > 100 µM | TGI (MDA-N): > 100 µM | TGI (MOLT-4 leukemia): > 100 µM | TGI (NCI-H226 lung): > 100 µM | TGI (NCI-H23 lung): > 100 µM | TGI (NCI-H460 lung): > 100 µM | TGI (NCI-H522 lung): > 100 µM | TGI (NCI/ADR-RES ovarian): > 100 µM | TGI (OVCAR-3 ovarian): > 100 µM | TGI (OVCAR-4 ovarian): > 100 µM | TGI (OVCAR-5 ovarian): > 100 µM | TGI (OVCAR-8 ovarian): > 100 µM | TGI (PC-3 prostate): > 100 µM | TGI (RPMI-8226 leukemia): > 100 µM | TGI (RXF 393 renal): > 100 µM | TGI (SF-268 CNS): > 100 µM | TGI (SF-295 CNS): > 100 µM | TGI (SF-539 CNS): > 100 µM | TGI (SK-MEL-2 melanoma): > 100 µM | TGI (SK-MEL-28 melanoma): > 100 µM | TGI (SK-MEL-5 melanoma): > 100 µM | TGI (SK-OV-3 ovarian): > 100 µM | TGI (SN12C renal): > 100 µM | TGI (SNB-19 CNS): > 100 µM | TGI (SNB-75 CNS): 89.9 µM | TGI (SR leukemia): > 100 µM | TGI (SW-620 colon): > 100 µM | TGI (TK-10 renal): > 100 µM | TGI (U251 CNS): > 100 µM | TGI (UACC-257 melanoma): > 100 µM | TGI (UACC-62 melanoma): > 100 µM | TGI (UO-31 renal): > 100 µM
